Reference: ChEMBL document CHEMBL1649420, “Identifying chelators for metalloprotein inhibitors using a fragment-based approach” (J Med Chem, 2011)

What was measured:
[1] = molecular target: T1, Tyrosinase (Agaricus bisporus) (UniProt O42713); details: at 1 mM;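 note: inhibition measured at 10 min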
T1 sequence (whole entry): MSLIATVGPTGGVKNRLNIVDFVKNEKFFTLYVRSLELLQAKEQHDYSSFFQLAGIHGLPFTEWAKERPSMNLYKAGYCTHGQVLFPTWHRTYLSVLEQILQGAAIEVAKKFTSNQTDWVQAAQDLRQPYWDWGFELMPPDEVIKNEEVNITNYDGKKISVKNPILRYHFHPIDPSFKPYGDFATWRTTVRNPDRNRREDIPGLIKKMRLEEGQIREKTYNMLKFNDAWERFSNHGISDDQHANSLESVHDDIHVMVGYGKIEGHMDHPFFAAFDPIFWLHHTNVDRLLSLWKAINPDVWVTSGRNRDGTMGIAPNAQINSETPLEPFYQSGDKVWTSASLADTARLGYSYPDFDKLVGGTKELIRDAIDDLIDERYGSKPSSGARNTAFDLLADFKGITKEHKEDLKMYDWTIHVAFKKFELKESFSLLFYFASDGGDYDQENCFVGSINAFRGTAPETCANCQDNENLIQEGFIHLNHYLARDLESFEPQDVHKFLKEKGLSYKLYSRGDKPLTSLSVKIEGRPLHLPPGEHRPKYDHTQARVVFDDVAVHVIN

[2] = molecular target: T2, Lethal factor (Bacillus anthracis) (UniProt P15917); details: at 1 mM
T2 sequence (whole entry): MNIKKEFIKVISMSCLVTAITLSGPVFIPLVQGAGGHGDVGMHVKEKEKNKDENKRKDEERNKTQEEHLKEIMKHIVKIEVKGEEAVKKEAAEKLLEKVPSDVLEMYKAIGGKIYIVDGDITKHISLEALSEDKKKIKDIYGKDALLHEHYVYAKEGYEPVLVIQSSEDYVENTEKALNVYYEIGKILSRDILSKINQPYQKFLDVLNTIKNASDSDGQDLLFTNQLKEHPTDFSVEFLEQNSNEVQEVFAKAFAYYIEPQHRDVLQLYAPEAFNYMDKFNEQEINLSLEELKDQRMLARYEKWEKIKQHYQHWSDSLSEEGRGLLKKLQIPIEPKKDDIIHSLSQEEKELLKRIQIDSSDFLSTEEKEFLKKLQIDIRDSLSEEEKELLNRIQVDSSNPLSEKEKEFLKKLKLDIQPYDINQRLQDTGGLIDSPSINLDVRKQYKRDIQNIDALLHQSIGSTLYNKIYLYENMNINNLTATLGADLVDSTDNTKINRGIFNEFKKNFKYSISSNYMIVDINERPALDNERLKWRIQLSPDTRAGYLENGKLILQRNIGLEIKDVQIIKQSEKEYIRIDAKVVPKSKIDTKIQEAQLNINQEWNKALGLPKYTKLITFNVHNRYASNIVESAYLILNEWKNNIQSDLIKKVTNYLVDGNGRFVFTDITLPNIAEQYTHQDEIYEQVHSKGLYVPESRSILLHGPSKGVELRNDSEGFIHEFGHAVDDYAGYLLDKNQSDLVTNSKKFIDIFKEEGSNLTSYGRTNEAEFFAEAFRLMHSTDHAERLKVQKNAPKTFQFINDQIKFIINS

[3] = molecular target: T3, Interstitial collagenase (Homo sapiens) (UniProt P03956); details: at 1 mM;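 note: recombinant human enzyme, with inhibition measured after 30 min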
T3 sequence (whole entry): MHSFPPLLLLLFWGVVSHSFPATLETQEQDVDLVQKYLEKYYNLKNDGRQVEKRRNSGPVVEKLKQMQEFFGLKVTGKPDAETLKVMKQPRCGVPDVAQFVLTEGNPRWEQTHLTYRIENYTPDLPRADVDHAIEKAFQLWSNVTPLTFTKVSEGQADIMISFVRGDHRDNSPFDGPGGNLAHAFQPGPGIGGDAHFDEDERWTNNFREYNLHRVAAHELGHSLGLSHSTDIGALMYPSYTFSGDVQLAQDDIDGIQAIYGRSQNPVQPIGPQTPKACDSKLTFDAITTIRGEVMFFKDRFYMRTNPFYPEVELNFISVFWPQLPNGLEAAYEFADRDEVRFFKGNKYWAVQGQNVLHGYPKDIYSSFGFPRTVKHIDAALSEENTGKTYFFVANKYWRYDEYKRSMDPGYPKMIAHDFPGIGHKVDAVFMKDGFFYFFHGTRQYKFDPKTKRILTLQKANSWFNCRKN

[4] = molecular target: 72 kDa type IV collagenase (Homo sapiens, UniProt P08253); details: at 1 mM;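 note: recombinant human enzyme, inhibition read after a 30 min incubation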
[5] = molecular target: Stromelysin-1 (Homo sapiens) (UniProt P08254); details: at 1 mM;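 note: recombinant enzyme, inhibition read after a 30 min incubation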
[6] = molecular target: Neutrophil collagenase (Homo sapiens) (UniProt P22894); details: at 1 mM;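 note: recombinant human MMP8 enzyme, percent inhibition read after 30 min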
[7] = molecular target: Matrix metalloproteinase-9 (Homo sapiens) (UniProt P14780); details: at 1 mM;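 note: recombinant human MMP9, activity read after 30 min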
[8] = molecular target: T4, Nitric oxide synthase, inducible (Mus musculus) (UniProt P29477); details: at 1 mM;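 note: recombinant enzyme, activity read out colorimetrically after 40 min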
T4 sequence (whole entry): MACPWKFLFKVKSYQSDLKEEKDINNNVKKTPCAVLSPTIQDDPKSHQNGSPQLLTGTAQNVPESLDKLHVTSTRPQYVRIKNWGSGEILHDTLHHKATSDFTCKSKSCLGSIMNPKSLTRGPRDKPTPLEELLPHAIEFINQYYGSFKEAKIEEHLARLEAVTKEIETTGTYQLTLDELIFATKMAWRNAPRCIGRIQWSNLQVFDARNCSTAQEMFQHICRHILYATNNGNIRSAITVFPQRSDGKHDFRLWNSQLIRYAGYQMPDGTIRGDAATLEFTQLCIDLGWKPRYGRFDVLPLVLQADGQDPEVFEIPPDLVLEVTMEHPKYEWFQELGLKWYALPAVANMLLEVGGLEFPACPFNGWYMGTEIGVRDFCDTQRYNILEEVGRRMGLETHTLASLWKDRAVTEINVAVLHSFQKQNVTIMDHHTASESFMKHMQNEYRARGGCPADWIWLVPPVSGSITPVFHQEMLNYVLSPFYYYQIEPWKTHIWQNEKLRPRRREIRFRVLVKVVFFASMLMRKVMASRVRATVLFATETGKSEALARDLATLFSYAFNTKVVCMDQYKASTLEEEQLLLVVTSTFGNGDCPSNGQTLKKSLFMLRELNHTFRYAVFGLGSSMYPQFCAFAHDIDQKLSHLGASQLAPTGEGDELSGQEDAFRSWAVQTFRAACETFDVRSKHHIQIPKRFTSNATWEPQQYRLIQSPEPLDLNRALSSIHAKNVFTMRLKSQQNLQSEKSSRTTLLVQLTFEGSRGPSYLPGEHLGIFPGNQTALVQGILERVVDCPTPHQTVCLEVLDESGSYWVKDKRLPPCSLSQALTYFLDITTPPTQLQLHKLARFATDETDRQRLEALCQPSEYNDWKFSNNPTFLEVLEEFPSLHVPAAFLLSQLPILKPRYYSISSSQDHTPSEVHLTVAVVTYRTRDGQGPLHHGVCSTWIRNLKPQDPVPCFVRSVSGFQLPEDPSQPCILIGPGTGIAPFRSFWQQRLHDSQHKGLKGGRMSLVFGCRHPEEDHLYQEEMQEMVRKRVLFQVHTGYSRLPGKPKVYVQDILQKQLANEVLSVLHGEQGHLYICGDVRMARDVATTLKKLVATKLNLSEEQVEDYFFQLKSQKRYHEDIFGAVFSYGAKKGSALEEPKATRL

[9] = molecular target: T5, Polyunsaturated fatty acid 5-lipoxygenase (Homo sapiens) (UniProt P09917); assay: Inhibition of human recombinant 5-lipoxygenase at 1 mM after 10 mins by fluorescence assay
T5 sequence (whole entry): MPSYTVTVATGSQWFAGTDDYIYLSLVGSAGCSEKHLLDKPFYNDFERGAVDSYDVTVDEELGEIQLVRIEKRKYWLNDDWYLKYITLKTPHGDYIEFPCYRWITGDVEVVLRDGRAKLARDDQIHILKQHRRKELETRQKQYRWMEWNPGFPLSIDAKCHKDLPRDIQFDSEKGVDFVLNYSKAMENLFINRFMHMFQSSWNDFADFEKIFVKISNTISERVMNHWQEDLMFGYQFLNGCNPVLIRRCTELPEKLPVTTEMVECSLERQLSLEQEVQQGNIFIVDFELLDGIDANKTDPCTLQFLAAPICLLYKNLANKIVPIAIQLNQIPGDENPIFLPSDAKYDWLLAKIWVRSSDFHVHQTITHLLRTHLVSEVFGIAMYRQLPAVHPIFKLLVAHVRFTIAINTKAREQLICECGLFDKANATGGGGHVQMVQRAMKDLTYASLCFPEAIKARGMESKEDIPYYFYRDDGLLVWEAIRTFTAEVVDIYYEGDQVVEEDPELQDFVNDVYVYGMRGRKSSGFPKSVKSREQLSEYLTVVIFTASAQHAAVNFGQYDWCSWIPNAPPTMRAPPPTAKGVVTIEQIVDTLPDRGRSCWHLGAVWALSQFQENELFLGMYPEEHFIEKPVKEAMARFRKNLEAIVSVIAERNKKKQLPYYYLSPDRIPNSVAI

Sequence of Stromelysin-1 (Homo sapiens) (P08254 100-477 limits assumed): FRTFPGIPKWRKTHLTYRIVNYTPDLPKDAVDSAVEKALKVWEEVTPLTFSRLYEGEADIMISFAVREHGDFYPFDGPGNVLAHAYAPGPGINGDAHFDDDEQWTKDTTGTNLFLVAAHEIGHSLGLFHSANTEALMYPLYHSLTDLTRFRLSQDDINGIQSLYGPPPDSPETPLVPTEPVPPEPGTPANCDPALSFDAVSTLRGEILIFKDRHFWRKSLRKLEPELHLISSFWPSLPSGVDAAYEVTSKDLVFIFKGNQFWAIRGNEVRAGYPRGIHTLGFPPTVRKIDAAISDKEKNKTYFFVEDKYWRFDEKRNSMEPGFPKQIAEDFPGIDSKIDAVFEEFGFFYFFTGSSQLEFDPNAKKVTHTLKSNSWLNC
Sequence of 72 kDa type IV collagenase (P08253 110-660 limits assumed): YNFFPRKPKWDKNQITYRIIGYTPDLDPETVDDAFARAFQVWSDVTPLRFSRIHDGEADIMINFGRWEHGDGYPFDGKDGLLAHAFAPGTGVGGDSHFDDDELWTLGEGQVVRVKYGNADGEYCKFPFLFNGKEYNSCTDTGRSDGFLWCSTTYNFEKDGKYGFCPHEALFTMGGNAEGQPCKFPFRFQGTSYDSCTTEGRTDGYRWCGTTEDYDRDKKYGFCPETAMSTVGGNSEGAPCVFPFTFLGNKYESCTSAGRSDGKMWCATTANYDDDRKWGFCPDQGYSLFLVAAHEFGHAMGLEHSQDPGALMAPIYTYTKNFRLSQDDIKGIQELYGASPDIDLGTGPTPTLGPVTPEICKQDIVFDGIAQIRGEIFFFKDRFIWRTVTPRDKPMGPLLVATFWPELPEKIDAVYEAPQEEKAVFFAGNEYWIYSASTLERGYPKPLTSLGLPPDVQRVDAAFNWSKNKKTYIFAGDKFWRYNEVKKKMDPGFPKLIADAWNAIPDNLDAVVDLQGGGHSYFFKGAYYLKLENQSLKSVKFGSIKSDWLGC
Sequence of Matrix metalloproteinase-9 (Homo sapiens) (P14780 whole entry): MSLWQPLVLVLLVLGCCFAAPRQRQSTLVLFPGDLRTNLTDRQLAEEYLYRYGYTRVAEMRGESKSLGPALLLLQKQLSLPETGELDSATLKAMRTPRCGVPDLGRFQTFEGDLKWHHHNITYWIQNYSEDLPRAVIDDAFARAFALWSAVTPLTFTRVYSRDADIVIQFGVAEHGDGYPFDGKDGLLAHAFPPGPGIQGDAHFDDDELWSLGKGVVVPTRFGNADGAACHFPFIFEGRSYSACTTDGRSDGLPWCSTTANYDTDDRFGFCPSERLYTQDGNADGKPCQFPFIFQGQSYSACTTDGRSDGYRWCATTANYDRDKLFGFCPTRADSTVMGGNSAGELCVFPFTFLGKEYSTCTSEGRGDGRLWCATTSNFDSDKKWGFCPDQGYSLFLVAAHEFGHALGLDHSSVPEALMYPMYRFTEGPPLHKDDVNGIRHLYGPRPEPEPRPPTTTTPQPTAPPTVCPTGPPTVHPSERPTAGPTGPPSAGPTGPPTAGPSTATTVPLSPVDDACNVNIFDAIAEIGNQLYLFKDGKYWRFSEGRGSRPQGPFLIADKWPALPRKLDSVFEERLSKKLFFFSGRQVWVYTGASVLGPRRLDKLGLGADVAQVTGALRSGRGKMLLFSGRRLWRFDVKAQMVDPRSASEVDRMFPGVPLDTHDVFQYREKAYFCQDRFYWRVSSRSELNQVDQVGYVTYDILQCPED
Sequence of Neutrophil collagenase (Homo sapiens) (P22894 101-467 limits assumed): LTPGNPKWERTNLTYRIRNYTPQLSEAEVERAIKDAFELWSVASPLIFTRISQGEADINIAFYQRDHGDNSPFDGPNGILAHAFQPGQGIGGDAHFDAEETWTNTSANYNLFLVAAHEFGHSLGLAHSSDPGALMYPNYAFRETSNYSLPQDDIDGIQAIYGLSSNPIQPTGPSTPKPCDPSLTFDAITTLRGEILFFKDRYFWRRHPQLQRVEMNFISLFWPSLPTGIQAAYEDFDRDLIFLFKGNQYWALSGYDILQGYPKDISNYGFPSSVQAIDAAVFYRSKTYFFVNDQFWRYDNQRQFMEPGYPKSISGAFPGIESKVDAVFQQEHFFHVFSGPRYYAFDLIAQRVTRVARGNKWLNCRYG

In the case of `Cc1occc(=O)c1O`, the inhibition [1] is reported as -6%, the inhibition [2] is reported as 19% and the inhibition [3] is reported as 41%. For the same molecule, the inhibition [4] was 38%, the inhibition [5] was 34% and the inhibition [6] was 19%. It also gave an inhibition [7] of 32% and an inhibition [8] of 6%.

Work on `CC(C)c1cccc(=O)c(O)c1` yielded an inhibition [1] of 54%, an inhibition [2] of 66% and an inhibition [3] of 95%. The inhibition [4] was 90%, the inhibition [5] was 98% and the inhibition [6] was 100%. For the same molecule, the inhibition [7] was 99% and the inhibition [8] was 18%.

`COc1ccccc1O` showed an inhibition [9] of 60%, an inhibition [2] of 13% and an inhibition [3] of 8%. For the same molecule, the inhibition [4] was -5%, the inhibition [5] was -4% and the inhibition [6] was 4%. The inhibition [7] was -6% and the inhibition [8] was 13%.

`O=c1cc(CO)occ1O` showed an inhibition [9] of 84%, an inhibition [2] of 33% and an inhibition [3] of 59%. It also gave an inhibition [4] of 52%, an inhibition [5] of 62% and an inhibition [6] of 51%. For the same molecule, the inhibition [7] was 49% and the inhibition [8] was -4%.

Molecule `Cc1cc(=O)c(O)c(CO)o1` has an inhibition [1] of 11%, an inhibition [2] of 14% and an inhibition [3] of 60%. The inhibition [4] was 45%, the inhibition [5] was 47% and the inhibition [6] was 53%. The inhibition [7] was 44% and the inhibition [8] was 9%.

`OCc1ccnc(-c2cc(CO)ccn2)c1` showed an inhibition [9] of 41%, an inhibition [2] of 9% and an inhibition [3] of 72%. For the same molecule, the inhibition [4] was 77%, the inhibition [5] was 96% and the inhibition [6] was 100%. The inhibition [7] was 58% and the inhibition [8] was 21%.

Work on `c1cnc2c(c1)ccc1cccnc12` yielded an inhibition [9] of 4%, an inhibition [2] of 67% and an inhibition [3] of 71%. It also gave an inhibition [4] of 100%, an inhibition [5] of 91% and an inhibition [6] of 100%. For the same molecule, the inhibition [7] was 86% and the inhibition [8] was 30%.

With `O=C(O)c1ccc(O)cc1O` the inhibition [1] was 91%, the inhibition [2] was 7% and the inhibition [3] was 14%. For the same molecule, the inhibition [4] was -7%, the inhibition [5] was 3% and the inhibition [6] was -1%. The inhibition [7] was -8% and the inhibition [8] was 16%.

For `O=C(O)c1cccc(=O)n1O`, the inhibition [1] was 94%, the inhibition [2] was 47% and the inhibition [3] was 84%. The inhibition [4] was 60%, the inhibition [5] was 86% and the inhibition [6] was 89%. The inhibition [7] was 66% and the inhibition [8] was -5%.

Molecule `CCc1c(O)c(=O)ccn1C` has an inhibition [9] of 78%, an inhibition [2] of 4% and an inhibition [3] of 34%. For the same molecule, the inhibition [4] was 32%, the inhibition [5] was 20% and the inhibition [6] was 34%. It also gave an inhibition [7] of 13% and an inhibition [8] of 1%.

Molecule `CCc1occc(=O)c1O` has an inhibition [1] of -7%, an inhibition [2] of 25% and an inhibition [3] of 39%. The inhibition [4] was 33%, the inhibition [5] was 38% and the inhibition [6] was 34%. For the same molecule, the inhibition [7] was 28% and the inhibition [8] was 8%.

`Nc1ccc2cccc(O)c2n1` showed an inhibition [9] of 66%, an inhibition [2] of 59% and an inhibition [3] of 96%. It also gave an inhibition [4] of 100%, an inhibition [5] of 87% and an inhibition [6] of 91%. For the same molecule, the inhibition [7] was 100% and the inhibition [8] was 38%.

With `NC(=O)c1ccccc1O` the inhibition [1] was -8%, the inhibition [2] was 0% and the inhibition [3] was 21%. For the same molecule, the inhibition [4] was -1%, the inhibition [5] was 1% and the inhibition [6] was 24%. The inhibition [7] was 23% and the inhibition [8] was 14%.

In the case of `Cc1ccc2cccc(O)c2n1`, the inhibition [9] is reported as 59%, the inhibition [2] is reported as 44% and the inhibition [3] is reported as 47%. For the same molecule, the inhibition [4] was 65%, the inhibition [5] was 71% and the inhibition [6] was 63%. It also gave an inhibition [7] of 34% and an inhibition [8] of 7%.

`O=C(O)c1ccc2ccccc2n1` was tested, and the inhibition [1] was 58%, the inhibition [2] was 45% and the inhibition [3] was 52%. It also gave an inhibition [4] of 37%, an inhibition [5] of 73% and an inhibition [6] of 29%. It also gave an inhibition [7] of 37% and an inhibition [8] of 11%.

Work on `CCc1c(O)c(=O)ccn1CC` yielded an inhibition [9] of 83%, an inhibition [3] of 25% and an inhibition [4] of 17%. It also gave an inhibition [5] of 9%, an inhibition [6] of 31% and an inhibition [7] of 15%. For the same molecule, the inhibition [8] was 8%.

In the case of `O=C(O)c1ccc2cccc(O)c2n1`, the inhibition [1] is reported as 75%, the inhibition [2] is reported as 89% and the inhibition [3] is reported as 82%. For the same molecule, the inhibition [4] was 84%, the inhibition [5] was 94% and the inhibition [6] was 88%. It also gave an inhibition [7] of 68% and an inhibition [8] of 29%.
